Measurements: US20070122870A1, “Method for water testing and devices and kit of components for use in such a method” (priority 2003, published 2007)
Entries after “also recorded” stand apart in the source; their conditions may differ.

Tests used:
V. natriegens [1] = test: LIVE/DEAD BacLight membrane integrity, closed cultures; type: cell-based, Vibrio natriegens; conditions: closed culture
Experimental: (§1) (viii) Two ready-to-use commercial kits to assess cell viability (ProCheck™ Cell Viability Assay) and membrane integrity (LIVE/DEAD® BacLight™ Bacterial Viability Kit) were tested and adapted for using during ECOALERT experiments.
(§2) ProCheck™ is designed to measure the amount of viable, metabolising cells in a sample, and LIVE/DEAD® BacLight™ distinguish live and dead bacteria As a preliminary test, the two kits were tested in a volumetric series of mixtures of two bacterial types of V. natriegens: live, exponentially growing bacteria and dead bacteria killed by autoclaving an aliquot of the same culture. The colorimetric signal indicating cell viability (ProCheck™) and the fluorimetric signal indicating membrane integrity (LIVE/DEAD® BacLight™) increased linearly with the proportion of live bacteria in the mixture.

V. natriegens [2] = test: Growth dynamics (optical density, cell concentration) in closed cultures; type: cell-based, Vibrio natriegens; conditions: closed culture; for bacterial growth (growth curve, growth rate, optical density, cell concentration): compared to the non-toxic control
Excerpt: (ii) Sterile, 12-ml capacity, screw-capped, clear polystyrene test tubes (Starstedt) were selected as the most appropriate closed system for use in ECOALERT experiments. These test tubes are ideal for short-term cell culturing where aeration is not critical. Also, the optical density of the culture can be read as often as desired, by simply inserting the same tube in a spectrophotometer, thus avoiding contamination risks and reducing analysis time.
(viii) The effect of a range of contaminants on growth dynamics and sub-cellular bioindicators in closed cultures of V. natriegens was studied:
(xi) The sensitivity of cultures of V. natriegens to a range of contaminants in closed laboratory experimental systems was studied at specified toxic concentrations and time scales.

V. natriegens [3] = test: Respiration (CTC fluorescence) in closed cultures; type: cell-based, Vibrio natriegens; conditions: closed culture; for respiration: compared to the non-toxic control
Experimental: (vi) The application of the redox dye CTC (5-cyano-2,3-ditolyl tetrazolium chloride, Polysciences Europe) was developed to direct fluorimetric determination of respiration in bacterial suspensions. […] Traditionally, CTC has been used with flow cytometry and epifluorescence microscopy, combined with DAPI to counterstain total cells. However, its application to bacterioplankton remains controversial.
An exponentially growing culture of V. natrigens was incubated with the redox dye CTC following the standard procedure (2.0 mM final concentration, 4 h at 28° C.) and samples were taken every 30 minutes to count total cells and CTC+ cells in the microscope.
(§3) (viii) The effect of a range of contaminants on growth dynamics and sub-cellular bioindicators in closed cultures of V. natriegens was studied: […]

Pseudomonas = test: ECOALERT deployment in controlled flow-through system, respiration (CTC fluorescence); type: cell-based; conditions: after 72 hours; 50 ppb BPH, 5 ppb TBDE; 7.5° C.
Excerpt: The experimental setup involved 16 tanks (4 animal species 4 exposure treatments) connected in a flow-through system with a direct intake of seawater from 80 m depth in the Stavanger fjord, outside the laboratory. For each one of the test animals, three tanks were connected to a chemostate system which maintained a constant concentration of each of the following chemicals: 50 ppb bisphenol A (BPH), 50 ppb diallyl phthalate (DAP), and 5 ppb tetrabromodiphenylether or PBDE-47 (TBDE). The forth tank had no chemical supply and was used as control. ECOALERT was deployed in the mussel tanks, one basket per tank. The water conditions in all the tanks were: 7.5° C. temperature, pH 7.78 and […].
Each deploying basket of ECOALERT was equipped with 3 dialysis tubes with Pseudomonas, 3 tubes filled with Vibrio natriegens and 3 dialysis tubes with medium-only without cells. Each dialysis tube was repeatedly sampled at 1, 24, 48 and 72 hours. Due to the low temperature of the water (7.5° C.) a low bacterial growth rate was expected and because of that the duration of the experiment was expanded to 72 hours. At every time-point, growth and respiration activity of the bacteria were measured as turbidity and CTC fluorescence respectively using the handheld CTC fluorometer/turbidimeter. […]

caged Pseudomonas sp. [4] = test: Respiration indicator (CTC) in toxic caged cultures; type: cell-based; conditions: caged toxicity assays
Excerpt: Respiration. Respiration was estimated with the redox dye CTC (Polysciences) as values of fluorescent intracellular formazan.
(§4) (x) Bacterial sub-cellular indicators (DNA, respiration, membrane integrity and viability) were studied in toxic cultures of caged Pseudomonas sp.

caged Pseudomonas sp. [5] = test: Growth limitation (OD) of caged bacteria in dialysis tubes; type: cell-based
Experimental: On the night before the experiment, a number of 2-litre HDPE bottles, one bottle per toxicity treatment, were filled with water (3/4 seawater 1-μm filtered, 1/4 distilled water). The bottles were kept at 15° C. stirring at low speed.
The dialysis tubes, which are supplied soaked in sodium azide, were rinsed throughly, refilled with distilled water and UV-irradiated for 10 minutes to ensure sterility.
Also the night before, a fresh culture of bacteria was inoculated from the original stock in liquid diluted medium.
Before starting the toxicity assay, the bottles were spiked with the contaminant and buffered to pH 7.3. At the same time, a fresh volume of diluted medium was inoculated from the culture grown overnight and kept for ˜2 hours at 15° C. until the growth rate picked up again and OD540 approached 0.005.
Then, the dialysis tubes were emptied of the water and four of them topped up with the bacterial culture, plus one blank tube with medium-only (no bacteria), and placed into the bottle to start the assay. Each bottle could hold 5 dialysis tubes floating upright.
The stirring was kept low and at time intervals samples were removed from the tubes with sterile pipettes to measure the different bacterial indicators.
(ix) The growth dynamics of toxic cultures of caged Pseudomonas sp. were studied. The effect of toxicity on the growth of caged bacteria was studied in several assays where different concentrations of contaminants were added to the water of the tanks.

V. natriegens [6] = test: DNA (thymidine uptake) and protein (leucine uptake) synthesis in closed cultures; type: cell-based, Vibrio natriegens; conditions: closed culture; for DNA synthesis / protein synthesis: compared to the control
Experimental: (iv) The application of the 3H-leucine method of Smith and Azam (Marine Microbial. Food Webs. 6(2), 107-114, 1992) was developed and also used with 3H-thymidine to estimate bacterial production. The synthesis of DNA (thymidine uptake) and protein (leucine uptake) was studied in V. natriegens closed cultures. In non-toxic cultures the uptake of both radiotracers by the bacteria reaches maximal values between 4 and 8 hours of the experiment, coinciding with the log-phase of the growth curve.
as §3

V. natriegens [7] = test: ProCheck cell viability assay, closed cultures; type: cell-based, Vibrio natriegens; conditions: closed culture, compared with the non-toxic control
Experimental: as §1, §2

caged Pseudomonas sp. [8] = test: Bacterial DNA indicator (PicoGreen) in toxic caged cultures; type: cell-based; conditions: caged toxicity assays
Excerpt: Bacterial DNA. To improve the detection of bacterial DNA in culture samples, the PicoGreen double-strand DNA (dsDNA) reagent (Molecular Probes) was used instead of DAPI. PicoGreen reagent is more sensitive to small changes in the DNA content of bacterial cultures, resulting in a good correlation with OD.
as §4

bacterial culture = test: ECOALERT assay, ratio respiration/growth (CTC/TRB); type: cell-based; conditions: compared to the control
Experimental: Two bacterial endpoints were chosen based on the results from Example 2: growth and respiration. Growth is an endpoint at population level and is estimated by measuring in vivo optical density (OD) or turbidity (TRB). Respiration is an endpoint at subcellular level and is measured by the fluorescence emitted by actively respiring bacteria, using the CTC redox dye.
To assess OD, TRB and CTC as indicators of toxicity a series of ECOALERT assays were carried out on a wide range of chemical substances, with special attention to common pharmaceuticals but also including some contaminants cited in the OSPAR list for priority action (OSPAR 2000). The concentrations tested were based on toxicological and environmental levels, where this information was available.
Even when no clear effect could be observed in the CTC indicator alone, there was an advantage in using the bacterial indicators OD (or TRB) and CTC simultaneously. That was because it was possible to use the ratio respiration/growth, which is an estimator of the proportion of respiring or active bacteria in the population, as an indirect indicator of the health of the population.

[9] = compared with the non-toxic control

Question: With `c1cc2ccc3cccc4ccc(c1)c2c34` [Pyrene, pyrene] as the compound, how does the “membrane integrity (LIVE/DEAD BacLight)” value (V. natriegens [1]; stationary phase) read?
Answer: loss of membrane integrity

Question: And the “bacterial growth (growth curve, growth rate, optical density, cell concentration)” value (from here on “bacterial growth”) (V. natriegens [2])?
Answer: no other effect was observed

Question: And the increase in respiration (V. natriegens [3]; average)?
Answer: 14%

Question: For `CC(C)(c1ccc(O)cc1)c1ccc(O)cc1` [BPH, bisphenol A], which bacterial respiration (Pseudomonas) is on record?
Answer: clear negative effect; also recorded: had an impact on bacteria

Question: With mercury [Hg] as the compound, how does the “respiration as indicator of toxicity” value (caged Pseudomonas sp. [4]) read?
Answer: most sensitive indicator of toxicity

Question: What about the growth limitation (caged Pseudomonas sp. [5]; 2 mg/L, 4 hours) of the same compound?
Answer: Up to 60%

Question: For `Brc1cccc(Oc2ccc(Br)c(Br)c2Br)c1` [TBDE, tetrabromodiphenylether], which bacterial respiration (Pseudomonas) is on record?
Answer: possible positive effect

Question: How did the “membrane integrity (LIVE/DEAD BacLight)” value (V. natriegens [1]; [9]) turn out when `[Cu]` [Cu, copper] was run?
Answer: damage of membranes

Question: What about the “bacterial growth” value (V. natriegens [2]) of the same compound?
Answer: notable slow down of the growth curve; also recorded: very conspicuous and instantaneous reduction

Question: And the “bacterial growth” value (V. natriegens [2]; listed as copper)?
Answer: nearly ceased

Question: And the DNA synthesis (V. natriegens [6])?
Answer: nearly ceased

Question: And the protein synthesis (V. natriegens [6])?
Answer: nearly ceased

Question: And the “cell viability (ProCheck)” value (V. natriegens [7])?
Answer: affecting cell viability

Question: What about the respiration (V. natriegens [3]) of the same compound?
Answer: very conspicuous and instantaneous reduction

Question: What about the respiration (V. natriegens [3]; listed as copper) of the same compound?
Answer: nearly ceased

Question: What about the growth limitation (caged Pseudomonas sp. [5]; 20 mg/L, after 9 hours) of the same compound?
Answer: 56%

Question: And the effect on growth (caged Pseudomonas sp. [5]; additions under 0.1 mg/L)?
Answer: enhancing effect on growth

Question: What about the growth limitation (caged Pseudomonas sp. [5]; assays 1 (doses 0.001-10 mg Cu/L) and 2 (doses 0.02-20 mg Cu/L)) of the same compound?
Answer: < 50%

Question: And the “DNA as indicator of toxicity” value (caged Pseudomonas sp. [8])?
Answer: could not detect limitation

Question: Which “bacterial growth” value (V. natriegens [2]) does the source give for `c1ccc2c(c1)ccc1ccccc12` [Phenanthrene, phenanthrene] here?
Answer: did not affect bacterial growth significantly; also recorded: no major effect

Question: And the protein synthesis (V. natriegens [6])?
Answer: doubled; also recorded: small initial stimulation

Question: And the “DNA synthesis rates higher than control” value (V. natriegens [6]; on average)?
Answer: 30%

Question: What about the respiration (V. natriegens [3]) of the same compound?
Answer: No effect

Question: With `NC(=O)N1c2ccccc2C=Cc2ccccc21` [carbamazepine, reference compound] as the compound, how does the CTC/TRB ratio (bacterial culture) read?
Answer: initial positive effect

Question: Which “respiration as indicator of toxicity” value (caged Pseudomonas sp. [4]) does the source give for `[Cd]` [Cd, cadmium] here?
Answer: most sensitive indicator of toxicity

Question: And the growth limitation (caged Pseudomonas sp. [5]; 20 mg Cd/L, after 4 hours of exposure)?
Answer: 59%

Question: And the growth limitation (caged Pseudomonas sp. [5]; lower Cd treatments)?
Answer: did not cause any clear limitation of bacterial growth

Question: With `[Zn]` [zinc] as the compound, how does the growth limitation (caged Pseudomonas sp. [5]; 50 mg/L, after 4 h) read?
Answer: 51%

Question: What about the “toxicity / effect on growth” value (caged Pseudomonas sp. [5]; first experiment, doses between 0.05-5 mg/L) of the same compound?
Answer: No significant toxicity; also recorded: positive effect in most of the treatments

Question: And the “DNA as indicator of toxicity” value (caged Pseudomonas sp. [8])?
Answer: sensitive indicator of toxicity

Question: Which results are given for `Cl[C@H]1[C@H](Cl)[C@@H](Cl)[C@@H](Cl)[C@H](Cl)[C@H]1Cl` [Lindane]?
Answer: bacterial growth (growth curve, growth rate, optical density, cell concentration) (V. natriegens [2]): transient, rather subtle stimulation; also recorded: transient, faint stimulation; respiration (V. natriegens [3]): transient, rather subtle stimulation; also recorded: transient, faint stimulation

Question: Which “membrane integrity (LIVE/DEAD BacLight)” value (V. natriegens [1]; [9]) does the source give for “dodecylbenzensulfonic acid sodium salt [detergent]” here?
Answer: progressive damage of cellular membranes with time

Question: What about the “membrane integrity (LIVE/DEAD BacLight)” value (V. natriegens [1]; stationary phase) of the same compound?
Answer: deleterious effect on membranes

Question: And the size of bacteria (V. natriegens [2]; compared to control bacteria, sodium salt)?
Answer: progressively reduced their size; also recorded: reduces

Question: And the “bacterial growth” value (V. natriegens [2]; sodium salt)?
Answer: increased over the control; also recorded: seems to enhance

Question: What about the “reduction in bacterial numbers” value (V. natriegens [2]; instant) of the same compound?
Answer: 10 fold

Question: And the DNA synthesis (V. natriegens [6])?
Answer: increased slightly over the control

Question: What about the protein synthesis (V. natriegens [6]; sodium salt) of the same compound?
Answer: inhibited but seems to recover after 48 h

Question: What about the respiration (V. natriegens [3]; sodium salt) of the same compound?
Answer: contrary to that of the non-toxic control; also recorded: seems to enhance

Question: What about the reduction in respiration (V. natriegens [3]; instant) of the same compound?
Answer: 10 fold

Question: How did the CTC/TRB ratio (bacterial culture) turn out when `Oc1c(Cl)c(Cl)c(Cl)c(Cl)c1Cl` [PCP] was run?
Answer: loss of respiring cells

Question: Which results are given for `CC(C)(c1cc(Br)c(O)c(Br)c1)c1cc(Br)c(O)c(Br)c1` [TBBA]?
Answer: membrane integrity (LIVE/DEAD BacLight) (V. natriegens [1]; stationary phase): membrane damage; increase in cellular respiration (ratio respiration/optical density) (V. natriegens [3]; average): more than 90%; respiration (V. natriegens [3]): sudden and important increase in respiration; also recorded: notable increase of respiration

Question: For `[Ni]` [Ni, nickel], which growth limitation (caged Pseudomonas sp. [5]; 5 mg/L, end of a 9-h assay) is on record?
Answer: 51%

Question: What about the growth limitation (caged Pseudomonas sp. [5]; 20 mg/L, after 9 hours) of the same compound?
Answer: 69%

Question: What about the effect on growth (caged Pseudomonas sp. [5]; below 0.5 mg/L) of the same compound?
Answer: seemed to favour growth

Question: For `[Pb]` [lead], which “respiration as indicator of toxicity” value (caged Pseudomonas sp. [4]) is on record?
Answer: most sensitive indicator of toxicity

Question: What about the growth limitation (caged Pseudomonas sp. [5]; 2 mg/L, 4 hours) of the same compound?
Answer: 52%
